Reference: US9012518B2, “Compositions and methods of delivery of pharmacological agents” (Abraxis BioScience, LLC, priority 2002, dated 2015)
Counter-ions that a name gives are not always drawn.

How the values were obtained:
[1] = cited from earlier work
[2] = 22.5° C.; cited from earlier work
[3] = target: immobilized albumin (Homo sapiens, UniProt P02768); test: Competition of added albumin with binding of fluorescent paclitaxel to immobilized albumin; conditions: similar effect with binding to endothelial cells
immobilized albumin, sequence (P02768 25-609): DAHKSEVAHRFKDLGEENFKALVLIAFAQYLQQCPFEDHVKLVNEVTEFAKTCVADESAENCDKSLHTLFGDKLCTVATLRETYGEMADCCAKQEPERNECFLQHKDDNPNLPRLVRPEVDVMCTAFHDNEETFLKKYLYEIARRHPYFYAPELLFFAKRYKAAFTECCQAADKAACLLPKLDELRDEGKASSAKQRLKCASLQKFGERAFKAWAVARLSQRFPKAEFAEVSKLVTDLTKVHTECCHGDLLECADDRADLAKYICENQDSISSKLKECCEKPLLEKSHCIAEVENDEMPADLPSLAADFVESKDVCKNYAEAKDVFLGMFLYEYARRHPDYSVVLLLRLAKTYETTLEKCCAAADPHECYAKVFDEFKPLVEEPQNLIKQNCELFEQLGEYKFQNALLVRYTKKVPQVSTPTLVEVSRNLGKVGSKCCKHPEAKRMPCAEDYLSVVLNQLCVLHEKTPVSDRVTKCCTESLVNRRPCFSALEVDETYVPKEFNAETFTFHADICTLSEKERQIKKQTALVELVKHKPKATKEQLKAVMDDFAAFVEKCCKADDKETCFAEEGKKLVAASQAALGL
Text: Albumin was immobilized on a microtiter plate. […] Thus invention compositions having lower amounts of albumin are preferred.

For `CC(=O)N(O)CCCCCNC(=O)CCC(=O)N(O)CCCCCNC(=O)CCC(=O)N(O)CCCCCN` [Deferoxamine mesylate USP, N-[5-[3-[(5-aminopentyl)-hydroxycarbamoyl]-propion-amido]pentyl]-3[[5-((N-hydroxyacetamido)pentyl]-carbamoyl]propionohydroxamic acid monomethanesulfonate (salt)], the solubility in water [1] is given as “freely soluble in water”.

In the case of `CC(C)c1cccc(C(C)C)c1O` [propofol, 2,6-diisopropylphenol], the “maximum solubility in water” value [2] is listed as 1.0 ± 0.02 µM.

For albumin, the “binding of fluorescent paclitaxel to immobilized albumin as added albumin increased” value [3] was “a corresponding decrease in binding”.
